{"source": "patent EP0352248A1", "about": "“Nucleoside derivatives” (priority 1988, dated 1990)", "assay_type_in_all_cases": "cell-based", "key": {"[1]": {"system": "H9 cells", "test": "Cellular toxicity, inhibition of cell multiplication, H9 cells", "conditions": "conc. 200 µM, cell number after 48 h", "method": "(§1) Test II Cellular toxicity\nH9 cells, 2x10⁷ cells per plate, are incubated in RPMI-1640 medium containing 10 % fetal calf serum, 70 mg/l penicillin, 100 mg/l streptomycin and 10 mM hepes, in absence or presence of test compounds. The number of cells per plate is determined after 48 h. Cells incubated in the absence of test compounds then underwent two cell division cycles.\nF5000 cells, which are human embryo cells, 1x10⁵ cells per plate, are incubated in Eagle's minimal essential medium, supplemented with Earle's salts, non-essential amino acids, 10 % fetal calf serum, 10 mM hepes, 70 mg/l penicillin and 100 mg/l streptomycin, in absence or presence of test compounds. The number of cells per plate is determined after 48 h. Cells incubated in the absence of test compounds underwent one cell division cycle. […]"}, "[2]": {"system": "F5000 cells", "test": "Cellular toxicity, inhibition of cell multiplication, F5000 cells", "conditions": "F5000 cells (human embryo cells), conc. 100 µM, cell number after 48 h", "method": "as §1\nF5000 cells, which are human embryo cells, 1x10⁵ cells per plate, are incubated in Eagle's minimal essential medium, supplemented with Earle's salts, non-essential amino acids, 10 % fetal calf serum, 10 mM hepes, 70 mg/l penicillin and 100 mg/l streptomycin, in absence or presence of test compounds. The number of cells per plate is determined after 48 h. Cells incubated in the absence of test compounds underwent one cell division cycle. The results are given as % inhibition of cell multiplication when the concentration of the compound is 100 µM or 250 µM."}, "[3]": {"system": "HIV (HTLV-IIIB)", "test": "Effect on HIV in H9 cells (frequency of HIV antigen containing cells, immunofluorescence)", "conditions": "Human immunodeficiency virus 1; H9 cells exposed to HIV (HTLV-IIIB), 6-7 days; read-out: Concentration (µM) for 50 % inhibition (IC₅₀) of human immuno deficiency virus multiplication in cell culture", "method": "Test I Effect of compounds of the formula I on HIV in H9 cells\nMaterials and methods: HIV infection of H9 cells\nH9 cells, 10⁵ cells per well on a 24 well plate, suspended in 2 ml RPMI-medium containing 10 % fetal calf serum, 100 µg/ml penicillin, 10 µg/ml streptomycin sulfate and 2 µg/ml polybrene are exposed to HIV (HTLV-IIIB) and different concentrations of the test compounds. The plates are incubated at 37°C in 5 % CO₂ for 6-7 days. The contents in each well is then homogenized with a pipette and transferred to a centrifuge tube. After centrifugation for 10 min at 1500 rpm the supernatant is removed and the cell pellet is analyzed by fixing in methanol on glass plates. Human HIV positive serum diluted 1:80 or 1:160 is added and incubated for 30 min at 37°C. The plate is then washed with phosphate-buffered saline (PBS) containing Ca²⁺ and Mg²⁺. Sheep anti-human conjugate (FITC) is added and after a new incubation the plate is again washed with PBS. Contrast straining is done with Evans blue and after drying the frequency of HIV antigen containing cells is determined in a microscope."}}}
{"smiles": "Nc1ccn(C2CC[C@H](CO)O2)c(=O)n1", "note": "(stereo partly drawn) [VSB 815, 1-(2,3-Dideoxy-alpha,beta-L-ribofuranosyl)-cytosine]", "values": [{"measurement": "% Inhibition H9", "setting": "[1]", "value": "35 (200) %"}, {"measurement": "% Inhibition F5000", "setting": "[2]", "value": "55 (100) %"}, {"measurement": "IC50", "setting": "[3]", "value": "< 1", "unit": "µM"}]}
